Data published in US6767917B1, “Amorphous torasemide modification” (Pliva d.d., priority 2000, dated 2004).

Key:
[1] = Solid-state stability of the amorphous modification (conversion into crystal modifications); assay type: physicochemical; settings: normal storage conditions, at crushing and compressing
[2] = Release of the active substance in water (USP 24); assay type: physicochemical; settings: for Released torasemide: water, USP 24, 37° C., 50 rpm, 1000 ml
Method: The amorphous torasemide modification as such is suitable for the preparation of pharmaceutical prepartions having short-term or prolonged actions. The amorphous torasemide modification prepared according to Example 1 of the present invention was subjected to the test of the release of the active substance in water at a temperature of 37° C. (USP 24) and the results are represented in Table 1. [table]

In the case of `Cc1cccc(Nc2ccncc2S(=O)(=O)NC(=O)NC(C)C)c1` [amorphous torasemide modification, N-(1-methylethylaminocarbonyl)-4-(3-methyl-phenylamino)-3-pyridinesulfonamide], the “Stability (no conversion into crystal modification I, II or III)” value [1] is reported as “stable”, the “Release profile in comparison with the known crystal torasemide modifications” value ([2]; in water (USP 24), same medium) is reported as “slower release” and the Released torasemide ([2]; time 0 minutes) is reported as 0%. The Released torasemide ([2]; time 15 minutes) was 6.8%, the Released torasemide ([2]; time 30 minutes) was 10.2% and the Released torasemide ([2]; time 45 minutes) was 13.0%. The Released torasemide ([2]; time 60 minutes) was 15.9%, the Released torasemide ([2]; time 90 minutes) was 20.4% and the Released torasemide ([2]; time 120 minutes) was 24.9%.
